Assay results published in the supplement of paper PMC10307832.

How the values were obtained:
[1] = compound: C1=CC2=NC=CN=C2C=C1/C=C/3\C(=O)NC(=O)S3 + CC(=O)Nc1cccc(-n2c(=O)n(C3CC3)c(=O)c3c(Nc4ccc(I)cc4F)n(C)c(=O)c(C)c32)c1 [Trametinib] (partner 0.02 µM); test: relative viability (nuclei count vs DMSO), 5 days (fraction); higher = more cells survive
Procedure, shortened: (§1)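 For relative viability, nuclei counts in treated wells were divided by those in vehicle wells. Lung cancer cell lines had been pin-tool dosed in 1536-well plates the day after seeding and cultured for 5 days, then fixed and stained in one step (final 0.05% Triton X-100, 1% formaldehyde, 1 ug/ml Hoechst) and imaged at 4×. Doses were one drug alone or a fixed anchor-drug dose plus five library-drug doses (not always all listed) in √10 steps, and values are duplicate-plate medians.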

BGJ398 + Dasatinib = compound: CCN1CCN(c2ccc(Nc3cc(N(C)C(=O)Nc4c(Cl)c(OC)cc(OC)c4Cl)ncn3)cc2)CC1 [BGJ398] + Cc1nc(Nc2ncc(C(=O)Nc3c(C)cccc3Cl)s2)cc(N2CCN(CCO)CC2)n1 [Dasatinib] (partner 0.075 µM); test: as above
Procedure, shortened: as §1

**Q.** Which results are given for NCI-H460?
**A.** relative viability ([1]; first compound 0.02 µM): 0.0917; relative viability ([1]; first compound 0.06325 µM): 0.0921; relative viability ([1]; first compound 0.2 µM): 0.223; relative viability ([1]; first compound 0.6325 µM): 0.11; relative viability ([1]; first compound 2 µM): 0.0876; relative viability (BGJ398 + Dasatinib; first compound 0.01 µM): 0.479; relative viability (BGJ398 + Dasatinib; first compound 0.03162 µM): 0.523; relative viability (BGJ398 + Dasatinib; first compound 0.1 µM): 0.46; relative viability (BGJ398 + Dasatinib; first compound 0.3162 µM): 0.522; relative viability (BGJ398 + Dasatinib; first compound 1 µM): 0.498

**Q.** Which results are given for NCI-H650?
**A.** relative viability ([1]; first compound 0.02 µM): 0.971; relative viability ([1]; first compound 0.06325 µM): 0.927; relative viability ([1]; first compound 0.2 µM): 1.3; relative viability ([1]; first compound 0.6325 µM): 0.994; relative viability ([1]; first compound 2 µM): 0.69; relative viability (BGJ398 + Dasatinib; first compound 0.01 µM): 0.414; relative viability (BGJ398 + Dasatinib; first compound 0.03162 µM): 0.515; relative viability (BGJ398 + Dasatinib; first compound 0.1 µM): 0.526; relative viability (BGJ398 + Dasatinib; first compound 0.3162 µM): 0.45; relative viability (BGJ398 + Dasatinib; first compound 1 µM): 0.401

**Q.** With NCI-H661 as the cell line, how does the relative viability ([1]; first compound 0.02 µM) read?
**A.** 0.709

**Q.** And the relative viability ([1]; first compound 0.06325 µM)?
**A.** 0.557

**Q.** And the relative viability ([1]; first compound 0.2 µM)?
**A.** 0.606

**Q.** And the relative viability ([1]; first compound 0.6325 µM)?
**A.** 0.526

**Q.** What about the relative viability ([1]; first compound 2 µM) of the same cell line?
**A.** 0.618

**Q.** And the relative viability (BGJ398 + Dasatinib; first compound 0.01 µM)?
**A.** 0.835

**Q.** And the relative viability (BGJ398 + Dasatinib; first compound 0.03162 µM)?
**A.** 0.854

**Q.** What about the relative viability (BGJ398 + Dasatinib; first compound 0.1 µM) of the same cell line?
**A.** 0.897

**Q.** What about the relative viability (BGJ398 + Dasatinib; first compound 0.3162 µM) of the same cell line?
**A.** 0.79

**Q.** What about the relative viability (BGJ398 + Dasatinib; first compound 1 µM) of the same cell line?
**A.** 0.746

**Q.** What does the source list for NCI-H1793?
**A.** relative viability ([1]; first compound 0.02 µM): 0.411; relative viability ([1]; first compound 0.06325 µM): 0.334; relative viability ([1]; first compound 0.2 µM): 0.434; relative viability ([1]; first compound 0.6325 µM): 0.421; relative viability ([1]; first compound 2 µM): 0.529; relative viability (BGJ398 + Dasatinib; first compound 0.01 µM): 0.286; relative viability (BGJ398 + Dasatinib; first compound 0.03162 µM): 0.398; relative viability (BGJ398 + Dasatinib; first compound 0.1 µM): 0.403; relative viability (BGJ398 + Dasatinib; first compound 0.3162 µM): 0.316; relative viability (BGJ398 + Dasatinib; first compound 1 µM): 0.276

**Q.** What does the source list for NCI-H1734?
**A.** relative viability ([1]; first compound 0.02 µM): 0.645; relative viability ([1]; first compound 0.2 µM): 0.802; relative viability ([1]; first compound 0.6325 µM): 0.625; relative viability ([1]; first compound 2 µM): 0.653; relative viability (BGJ398 + Dasatinib; first compound 0.01 µM): 0.443; relative viability (BGJ398 + Dasatinib; first compound 0.03162 µM): 0.53; relative viability (BGJ398 + Dasatinib; first compound 0.1 µM): 0.514; relative viability (BGJ398 + Dasatinib; first compound 0.3162 µM): 0.425; relative viability (BGJ398 + Dasatinib; first compound 1 µM): 0.468

**Q.** For LXF-289, which relative viability ([1]; first compound 0.02 µM) is on record?
**A.** 0.671

**Q.** What about the relative viability ([1]; first compound 0.06325 µM) of the same cell line?
**A.** 0.655

**Q.** What about the relative viability ([1]; first compound 0.2 µM) of the same cell line?
**A.** 0.649

**Q.** And the relative viability ([1]; first compound 0.6325 µM)?
**A.** 0.662

**Q.** What about the relative viability ([1]; first compound 2 µM) of the same cell line?
**A.** 0.688

**Q.** And the relative viability (BGJ398 + Dasatinib; first compound 0.01 µM)?
**A.** 0.194

**Q.** What about the relative viability (BGJ398 + Dasatinib; first compound 0.03162 µM) of the same cell line?
**A.** 0.218

**Q.** And the relative viability (BGJ398 + Dasatinib; first compound 0.1 µM)?
**A.** 0.184

**Q.** What about the relative viability (BGJ398 + Dasatinib; first compound 0.3162 µM) of the same cell line?
**A.** 0.254

**Q.** And the relative viability (BGJ398 + Dasatinib; first compound 1 µM)?
**A.** 0.156

**Q.** How did the relative viability ([1]; first compound 0.02 µM) turn out when H3255 was run?
**A.** 0.607

**Q.** What about the relative viability ([1]; first compound 0.06325 µM) of the same cell line?
**A.** 0.698

**Q.** What about the relative viability ([1]; first compound 0.2 µM) of the same cell line?
**A.** 0.643

**Q.** And the relative viability ([1]; first compound 0.6325 µM)?
**A.** 0.6

**Q.** What about the relative viability ([1]; first compound 2 µM) of the same cell line?
**A.** 0.699

**Q.** What about the relative viability (BGJ398 + Dasatinib; first compound 0.01 µM) of the same cell line?
**A.** 0.399

**Q.** And the relative viability (BGJ398 + Dasatinib; first compound 0.1 µM)?
**A.** 0.41

**Q.** What about the relative viability (BGJ398 + Dasatinib; first compound 0.3162 µM) of the same cell line?
**A.** 0.274

**Q.** What about the relative viability (BGJ398 + Dasatinib; first compound 1 µM) of the same cell line?
**A.** 0.353

**Q.** Which results are given for 201T?
**A.** relative viability ([1]; first compound 0.02 µM): 0.669; relative viability ([1]; first compound 0.06325 µM): 0.726; relative viability ([1]; first compound 0.2 µM): 0.718; relative viability ([1]; first compound 0.6325 µM): 0.736; relative viability ([1]; first compound 2 µM): 0.713; relative viability (BGJ398 + Dasatinib; first compound 0.01 µM): 0.582; relative viability (BGJ398 + Dasatinib; first compound 0.03162 µM): 0.557; relative viability (BGJ398 + Dasatinib; first compound 0.1 µM): 0.5; relative viability (BGJ398 + Dasatinib; first compound 0.3162 µM): 0.566; relative viability (BGJ398 + Dasatinib; first compound 1 µM): 0.514
